Experimental data reported in PMC2864305 (Biochemistry, 2010).

Target: T1, RePC (Rhizobium etli pyruvate carboxylase) (Rhizobium etli, UniProt Q2K340)
T1 sequence (Q2K340 1-1154): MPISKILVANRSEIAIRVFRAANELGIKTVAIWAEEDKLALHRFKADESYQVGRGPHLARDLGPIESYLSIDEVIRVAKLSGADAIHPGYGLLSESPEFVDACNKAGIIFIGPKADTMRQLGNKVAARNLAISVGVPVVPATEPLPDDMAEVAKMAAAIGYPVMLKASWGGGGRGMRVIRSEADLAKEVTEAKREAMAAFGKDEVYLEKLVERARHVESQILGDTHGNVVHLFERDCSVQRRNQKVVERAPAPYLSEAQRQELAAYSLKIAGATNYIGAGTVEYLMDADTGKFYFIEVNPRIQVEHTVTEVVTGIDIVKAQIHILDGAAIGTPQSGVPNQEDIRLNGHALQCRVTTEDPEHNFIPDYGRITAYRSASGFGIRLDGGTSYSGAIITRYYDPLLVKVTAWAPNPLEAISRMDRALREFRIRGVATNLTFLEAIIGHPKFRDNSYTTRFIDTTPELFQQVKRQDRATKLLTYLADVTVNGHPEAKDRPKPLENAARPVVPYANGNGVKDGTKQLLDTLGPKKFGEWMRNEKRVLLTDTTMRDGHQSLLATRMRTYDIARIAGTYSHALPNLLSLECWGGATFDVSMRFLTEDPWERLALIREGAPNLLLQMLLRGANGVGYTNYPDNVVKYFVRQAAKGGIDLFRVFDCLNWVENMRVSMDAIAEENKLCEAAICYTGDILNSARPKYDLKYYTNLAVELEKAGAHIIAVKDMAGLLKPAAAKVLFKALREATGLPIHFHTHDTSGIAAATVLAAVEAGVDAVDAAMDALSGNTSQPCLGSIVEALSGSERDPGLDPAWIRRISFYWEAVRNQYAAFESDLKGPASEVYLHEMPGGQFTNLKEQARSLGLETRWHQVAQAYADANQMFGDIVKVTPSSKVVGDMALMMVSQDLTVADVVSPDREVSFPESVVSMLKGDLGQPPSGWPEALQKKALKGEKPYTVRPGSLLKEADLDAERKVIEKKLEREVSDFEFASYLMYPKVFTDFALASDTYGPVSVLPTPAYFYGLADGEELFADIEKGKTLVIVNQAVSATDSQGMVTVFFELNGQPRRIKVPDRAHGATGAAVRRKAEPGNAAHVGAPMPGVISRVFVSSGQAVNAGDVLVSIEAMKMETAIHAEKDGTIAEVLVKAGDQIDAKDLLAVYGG
Format: biochemical
Conditions: read-out: % inhibition at 20 mM

NC(=O)C(=O)O [oxamate]
inhibition at 20000 µM: 68%
